In US20030220521A1, “Renal-selective prodrugs for control of renal sympathetic nerve activity in the treatment of hypertension” (G.D. Searle & Co., priority 1989, published 2003):
Where a name gives a salt, the structure may show the parent alone. Each block holds one molecule with its values, some of them ahead of it.

Experiments:
conscious SHR = assay: Assay XIII: antihypertensive experiments in conscious SHR (renal denervation, bulbocapnine); type: in vivo, rat; settings: bulbocapnine alone
Procedure: For antihypertensive experiments, male SHR (11-13 weeks of age; Harlan Sprague-Dawley, Inc.; Indianapolis, Ind.) were habituated for 3-4 days in individual experimental cages, which became their home cages for the duration of the study. Five to seven days before experimentation, SHR were anesthetized with chloral hydrate (400 mg/kg; Sigma Chemical Co., St. Louis, Mo.) and catheters were implanted into a femoral artery and vein. The catheters were led to the back of the neck, exteriorized, and channeled through a tether and swivel system (Alice King Chatham, Los Angeles, Calif.). Surgical renal denervation was performed as above. […] In separate groups of conscious SHR, Ex. #859 (5 mg/kg/hr, n=6) was infused alone, Ex. #859 (5 mg/kg/hr, n=6) was coinfused with bulbocapnine (100 μg/kg/min), or Ex. #859 (10 mg/kg/hr, n=6) was infused 5-7 days after surgical renal denervation. Surgical renal denervation was performed as described above. After a one hour control measure of mean arterial pressure, compounds were infused for four hours and mean arterial pressure was measured continuously.

[1] = test system: spontaneously hypertensive rats; assay: Assay II: chronic i.v. infusion, mean arterial pressure in spontaneously hypertensive rats (Ex. #3); type: in vivo, rat; settings: SHR, continuous infusion 5 mg/hr
Procedure: (§1) The Ex. #3 conjugate and saline vehicle were infused continuously for four days in spontaneously hypertensive rats. Mean arterial pressure was measured (Gould Chart Recorder, model 3800; Statham P23Db pressure transducer) via an indwelling femoral artery catheter between 10:00 a.m. and 2:00 p.m. each day. The Ex. #3 conjugate was infused at 5 mg/hr and the saline vehicle was infused at 300 μL,/hr. via a jugular vein catheter with a Harvard infusion pump.

Sprague-Dawley rats = assay: Assay I: acute in vivo effects on mean arterial pressure and renal blood flow, anesthetized rats; set-up: species or system rat; settings: for MAP / RBF: 100 mg/kg i.v.
Procedure: Sprague-Dawley rats were anesthetized with inactin (100 mg/kg, i.p.) and catheters were implanted into a carotid artery for measurement of mean arterial pressure (Gould model 3800 chart recorder; Statham pressure transducer model no. P23DB) and into a jugular vein for compound administrations (i.v.). In addition, a flow probe was implanted around the left renal artery for measurement of renal blood flow using Carolina Medical Electronics flow probes. Rats were allowed 60 min to stabilize before 10 minutes of control recordings of mean arterial pressure and renal blood flow were obtained. Control measurements were followed by intravenous injection of Ex. #3 conjugate and saline vehicle.

[2] = test system: spontaneously hypertensive rats; assay: Assay III: chronic i.v. infusion, mean arterial pressure in spontaneously hypertensive rats (Ex. #464); type: in vivo, rat; settings: SHR; for MAP: continuous infusion 10 mg/hr
Procedure: as §1, with “#464” for “#3”, “10” for “5”, “μL/hr.” for “μL,/hr. via a jugular vein catheter with a Harvard infusion pump.”

[3] = target: T1, dopamine beta-hydroxylase (DBH; EC 1.14.17.1) (Bos taurus, UniProt P15101); assay: Assay V: in vitro DBH inhibition (norepinephrine production, HPLC); type: biochemical, bovine; settings: for inhibition at 20 µM: test compound 20 μM, read-out: % Inhibition of DBH
T1 construct: DBH, purified from bovine adrenals (Sigma); purchased Sigma; host or cells: bovine adrenals (tissue-purified)
T1 sequence (P15101 1-610): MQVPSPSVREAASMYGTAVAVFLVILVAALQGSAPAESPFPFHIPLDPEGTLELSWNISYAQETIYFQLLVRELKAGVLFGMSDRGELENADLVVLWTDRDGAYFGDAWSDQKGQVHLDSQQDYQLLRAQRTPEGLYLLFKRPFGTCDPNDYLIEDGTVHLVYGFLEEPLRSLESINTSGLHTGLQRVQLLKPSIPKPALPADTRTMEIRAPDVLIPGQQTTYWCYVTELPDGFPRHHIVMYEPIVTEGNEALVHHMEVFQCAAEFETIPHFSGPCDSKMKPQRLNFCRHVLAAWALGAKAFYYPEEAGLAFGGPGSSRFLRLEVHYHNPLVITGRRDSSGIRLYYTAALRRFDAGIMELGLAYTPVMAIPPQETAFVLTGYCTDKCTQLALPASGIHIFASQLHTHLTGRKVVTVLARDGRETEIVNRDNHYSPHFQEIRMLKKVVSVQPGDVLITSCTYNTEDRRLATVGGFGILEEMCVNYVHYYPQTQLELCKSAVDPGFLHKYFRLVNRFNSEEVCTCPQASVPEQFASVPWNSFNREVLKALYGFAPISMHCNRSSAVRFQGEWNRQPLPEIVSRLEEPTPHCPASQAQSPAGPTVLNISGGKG
Procedure: In order to characterize the relative potency of the Ex. #859 conjugate and its various potential metabolites as inhibitors of dopamine beta-hydroxylase (DBH; EC 1.14.17.1), the enzyme activity was determined in vitro in the presence of these compounds. DBH, purified from bovine adrenals (Sigma) was incubated at 37° C. in buffer containing 20 mM dopamine as substrate. The reaction was stopped by addition of 0.5 M perchloric acid. The precipitate was removed and the product of the enzyme activity (norepinephrine), contained in the clear supernatant, was analyzed by HPLC. The chromatographic separation used a reversed phase C-18 column run isocratically with 0.2 M ammonium acetate (pH 5.2) as the mobile phase. The amount of norepinephrine produced by the enzyme-substrate mixture was analyzed by measuring the peak intensity (absorbance) at 280 nm for norepinephrine as it was eluted at 4.5 minutes, using a photo-diode array detector. The result of adding either fusaric acid or the Ex. #859 conjugate to the incubate at various concentrations is shown in Table XXIII and FIG. 6. […] Fusaric acid and Ex. #859 and two more possible metabolites (Ex #858 and fusaric acid hydrazide) were tested at 20 uM.

[4] = test system: spontaneously hypertensive rats; assay: Assay IX: chronic 4 day i.v. infusion of Ex. #861 and #863, mean arterial pressure in SHR; type: in vivo, rat; settings: for Blood Pressure (mean arterial pressure): 5 mg/hr i.v. infusion; for chronic effect on mean arterial pressure: SHR, 4 day infusion at 5 mg/hr
Procedure: The conjugates of Ex. #861 and #863 and saline vehicle were infused continuously for 4 days in spontaneously hypertensive rats. Mean arterial pressure was measured (Gould Chart Recorder, model 3800; Statham P23Db pressure transducer) via an indwelling femoral artery catheter between 10:00 a.m. and 2:00 p.m. each day. The Ex. #861 and Ex. #863 conjugates were infused at 5 mg/hr and the saline vehicle was infused at 100 μl/hr via a jugular vein catheter with a Harvard infusion pump. […] It is believed that at a higher dose of the Ex. #861 conjugate, blood pressure lowering effects would be observed.

[5] = test system: spontaneously hypertensive rats; assay: Assay VI: acute in vivo effects on mean arterial pressure and renal blood flow in anesthetized SHR (i.v. or i.d.); set-up: species or system rat; settings: for MAP / RBF: 100 mg/kg i.v.
Procedure: Spontaneously hypertensive rats were anesthetized with inactin (100 mg/kg, i.p.) and catheters were implanted into a carotid artery for measurement of mean arterial pressure (Gould model 3800 chart recorder; Statham pressure transducer model no. P23DB) and into a jugular vein for compound administrations (i.v. or i.d.). In addition, a flow probe was implanted around the left renal artery for measurement of renal blood flow using pulsed Doppler flowmetry. Rats were allowed 60 min to stabilize before 10 minutes of control recordings of mean arterial pressure and renal blood flow were obtained. Control measurements were followed by intravenous injection of 50 mg/kg of fusaric acid or the Ex. #859 conjugate. […] The Ex. #859 conjugate had no effect on mean arterial pressure at a dose of 100 mg/kg (n=4) during a 60 minute observation period. Renal blood flow (n=4) was unchanged 15 minutes after injection of the Ex. #859 conjugate but increased from 1.1 KHz (control period) to 3.5 KHz at 30 minutes postinjection.

[6] = test system: Spontaneously Hypertensive Rats (SHR); assay: Assay VII: acute effects on arterial pressure in anesthetized SHR; type: in vivo, rat; settings: i.v.: fusaric acid and fusaric acid hydrazide 100 mg/kg, Ex. #859 250 mg/kg
Procedure: Mean arterial pressure effects of fusaric acid hydrazide (100 mg/kg, i.v.), fusaric acid (100 mg/kg, i.v.) and Ex. #859 conjugate (250 mg/kg, i.v.) are shown in Table XXVII during a vehicle control period and 60 min post-injection of compound in anesthetized SHR. Rats were prepared as described above, minus the renal artery flow probe.

[7] = anesthetized SHR, Ex. #863 (Table XXVI)

melting point: 156 to 158 °C
SMILES: CCCCc1ccc(C(=O)NCCNC(=O)CCC(NC(C)=O)C(=O)O)nc1 (as salt: salt) [Ex. #861, N^2-acetyl-N-[2-[[(5-butyl-2-pyridinyl)carbonyl]amino]ethyl]-L-glutamine]

SMILES: COc1ccc2c(c1O)-c1c3c(cc4c1[C@H](C2)N(C)CC4)OCO3 [Bulbocapnine, bulbocapnine, reference compound]
Mean arterial pressure (conscious SHR; 0 hours): 160 ± 6
Mean arterial pressure (conscious SHR; 1 hour): 156 ± 7
Mean arterial pressure (conscious SHR; 2 hours): 161 ± 11
Mean arterial pressure (conscious SHR; 3 hours): 159 ± 6
Mean arterial pressure (conscious SHR; 4 hours): 157 ± 7
effect on mean arterial pressure over the four hour period (conscious SHR; conscious SHR): no effect

SMILES: CC(=O)NC(CCC(=O)N[C@@](C)(Cc1ccc(O)cc1)C(=O)O)C(=O)O (stereo partly drawn) [Ex. #3, N-[4-(acetylamino)-4-carboxy-1-oxobutyl]-α-methyl-L-tyrosine]
MAP ([1]; day 1): 175 ± 5 mm Hg
MAP ([1]; day 2): 174 ± 5 mm Hg
MAP ([1]; day 3): 172 ± 2 mm Hg
MAP ([1]; day Zero): 164 ± 3 mm Hg
MAP (Sprague-Dawley rats; 15 min after injection): 77 ± 5 mm Hg
RBF (Sprague-Dawley rats; 15 min after injection): 7.1 ± 0.1 mL/min
MAP (Sprague-Dawley rats; 30 min after injection): 73 ± 4 mm Hg
RBF (Sprague-Dawley rats; 30 min after injection): 6.2 ± 0.3 mL/min
MAP (Sprague-Dawley rats; 45 min after injection): 70 ± 2 mm Hg
RBF (Sprague-Dawley rats; 45 min after injection): 5.9 ± 0.1 mL/min
MAP (Sprague-Dawley rats; 60 min after injection): 71 ± 6 mm Hg
RBF (Sprague-Dawley rats; 60 min after injection): 5.9 ± 0.1 mL/min
MAP (Sprague-Dawley rats; time after injection Zero min): 76 ± 5 mm Hg
RBF (Sprague-Dawley rats; time after injection Zero min): 4.8 ± 0.8 mL/min
acute effect on mean arterial pressure (MAP) (Sprague-Dawley rats; i.v. injection): no acute effects
acute effect on renal blood flow (RBF) (Sprague-Dawley rats; i.v. injection): increased renal blood flow

SMILES: CC(=O)NC(CCC(=O)N[C@@](C)(Cc1ccc(O)c(O)c1)C(=O)O)C(=O)O (stereo partly drawn) [Ex. #464, N-[4-(acetylamino)-4-carboxy-1-oxobutyl]-3-hydroxy-α-methyl-L-tyrosine]
MAP ([2]; day 1): 169 ± 5 mm Hg
MAP ([2]; day 2): 161 ± 4 mm Hg
MAP ([2]; day 3): 163 ± 5 mm Hg
MAP ([2]; day 4): 159 ± 8 mm Hg
MAP ([2]; day Zero): 179 ± 6 mm Hg
effect on mean arterial pressure over the four-day period ([2]; infusion 10 mg/hr): lowered significantly

inhibition at 20 µM [3]: 0%
SMILES: CCCCc1ccc(C(=O)NNC(=O)CCC(N)C(=O)O)nc1 [Ex. #858, L-glutamic acid, 5-{[(5-butyl-2-pyridinyl)carbonyl]hydrazide}]

SMILES: CCCCc1ccc(C(=O)NCCNC(=O)CCC(NC(C)=O)C(=O)O)nc1 [Ex. #861, N^2-acetyl-N-[2-[[(5-butyl-2-pyridinyl)carbonyl]amino]ethyl]-L-glutamine]
Blood Pressure (mean arterial pressure) ([4]; day 1): 173 ± 3
Blood Pressure (mean arterial pressure) ([4]; day 2): 172 ± 4
Blood Pressure (mean arterial pressure) ([4]; day 3): 172 ± 3
Blood Pressure (mean arterial pressure) ([4]; day 4): 163 ± 9
Blood Pressure (mean arterial pressure) ([4]; day zero): 177 ± 3
chronic effect on mean arterial pressure [4]: did not change

SMILES: CCCCc1ccc(C(=O)N2CCN(C(=O)CCC(NC(C)=O)C(=O)O)CC2)nc1 (stereo not shown) [Ex. #863, 2-(acetylamino)-5-(4-[(5-butyl-2-pyridinyl)carbonyl]-1-piperazinyl]-5-oxopentanoic acid]
MAP ([5]; 60 min): 147 ± 14 mm Hg
RBF ([5]; 60 min): 4.3 ± 0.3 KHz
MAP ([5]; time zero): 149 ± 14 mm Hg
RBF ([5]; time zero): 1.6 ± 0.2 KHz
effect on mean arterial pressure [5, 7]: no effect
effect on renal blood flow [5, 7]: increased renal blood flow
Blood Pressure (mean arterial pressure) ([4]; day 1): 152 ± 6
Blood Pressure (mean arterial pressure) ([4]; day 2): 146 ± 7
Blood Pressure (mean arterial pressure) ([4]; day 3): 142 ± 7
Blood Pressure (mean arterial pressure) ([4]; day 4): 154 ± 7
Blood Pressure (mean arterial pressure) ([4]; day zero): 177 ± 5
chronic effect on mean arterial pressure [4]: lowered mean arterial pressure

inhibition at 20 µM [3]: 13.8%
SMILES: CCCCc1ccc(C(=O)NN)nc1 [Fusaric Acid Hydrazide, 5-n-butylpicolinic acid hydrazide]
inhibitory effect on dopamine-β-hydroxylase activity ([3]; tested at 20 uM): Only fusaric acid had significant inhibitory effects
Mean arterial pressure ([6]; 60 MIN post-injection): 104 ± 13 mmHg
Mean arterial pressure ([6]; ZERO (vehicle control period)): 159 ± 8 mmHg
